Experimental data taken from ChEMBL document CHEMBL2440096, “Synthesis, structure analysis, antitumor evaluation and 3D-QSAR studies of 3,6-disubstituted-dihydro-1,2,4,5-tetrazine derivatives” (Bioorg Med Chem Lett, 2013).

Experiments:
[1] = tested on: A549; experiment: Antiproliferative activity against human A549 cells by SRB assay; format: functional, cell-based
[2] = tested on: P388; experiment: Antiproliferative activity against mouse P388 cells by MTT assay; format: functional, cell-based

Row | Compound | IC50 ([1]; read-out: IC50) [µM] | IC50 ([1]; read-out: pIC50 (converted)) [µM] | IC50 [2] [µM]
1 | COc1cc(NC(=O)N2N=C(C)N(C(=O)Nc3cc(OC)cc(OC)c3)N=C2C)cc(OC)c1 | 0.035 | 0.035 | –
2 | CCOC(=O)N1C(c2ccccc2)=NN=C(c2ccccc2)N1C(=O)OCC | 26.6 | – | 11.2
3 | COC(=O)N1C(c2ccccc2)=NN=C(c2ccccc2)N1C(=O)OC | > 100 | – | > 100
4 | c1ccc(C2=NNC(c3ccccc3)=NN2)cc1 | 19.9 | 19.9 | –
5 | CC1=NN(C(=O)Nc2cccc(C)c2)C(C)=NN1C(=O)Nc1cccc(C)c1 | 0.574 | 0.574 | –
6 | CCCC1=NN(C(=O)Nc2ccccc2)C(CCC)=NN1C(=O)Nc1ccccc1 | 5.42 | 5.42 | –
7 | CCCC1=NN(C(=O)Nc2cccc(Cl)c2)C(CCC)=NN1C(=O)Nc1cccc(Cl)c1 | 1.1 | 1.1 | –
8 | CC1=NN(C(=O)Nc2cc(C)cc(C)c2)C(C)=NN1C(=O)Nc1cc(C)cc(C)c1 | 3.66 | 3.66 | –
9 | CC(C)C(=O)N1N=C(c2ccccc2)NN=C1c1ccccc1 | 2.22 | 2.22 | –
10 | O=C(CCl)N1N=C(c2ccc(C(F)(F)F)cc2)NN=C1c1ccc(C(F)(F)F)cc1 | 8.53 | 8.53 | –
11 | CCC(=O)N1N=C(c2ccc(C(F)(F)F)cc2)NN=C1c1ccc(C(F)(F)F)cc1 | 9.56 | 9.55 | –
12 | CC(=O)N1N=C(c2ccccc2)NN=C1c1ccccc1 | 44.7 | 44.7 | –
13 | O=C(CCl)N1N=C(c2ccccc2)NN=C1c1ccccc1 | 1.85 | 1.85 | –
14 | CCC(=O)N1N=C(c2ccccc2)NN=C1c1ccccc1 | 48.3 | 48.3 | –
15 | Oc1ccc(Cl)cc1C1=NN=C(c2cc(Cl)ccc2O)NN1 | 13.2 | 13.2 | –
16 | Clc1ccc(C2=NN=C(c3ccc(Cl)cc3)NN2)cc1 | 51.8 | 51.8 | –
17 | CCCCN1N=C(C)N(CCCC)N=C1C | 68.5 | 68.5 | –
18 | CC1=NN(C(=O)Nc2cccc(O)c2)C(C)=NN1C(=O)Nc1cccc(O)c1 | 5.55 | 5.55 | –
19 | CC1=NN(C(=O)Nc2ccccc2O)C(C)=NN1C(=O)Nc1ccccc1O | 57.3 | 57.3 | –
20 | COc1ccccc1NC(=O)N1N=C(c2ccccc2)NN=C1c1ccccc1 | 44.9 | 44.9 | –
21 | COC(=O)N1N=C(c2cccc(Cl)c2)N(C(=O)OC)N=C1c1cccc(Cl)c1 | 89 | 88.9 | –
22 | COC(=O)N1N=C(c2cccc([N+](=O)[O-])c2)N(C(=O)OC)N=C1c1cccc([N+](=O)[O-])c1 | 83.6 | 83.6 | –
23 | COC(=O)N1N=C(c2ccc(Cl)cc2)N(C(=O)OC)N=C1c1ccc(Cl)cc1 | 76.7 | 76.7 | –
24 | COC(=O)N1N=C(c2ccc(Cl)cc2Cl)N(C(=O)OC)N=C1c1ccc(Cl)cc1Cl | 79.3 | 79.3 | –
25 | O=S(=O)(c1ccccc1)N1N=C(c2ccccc2)N(S(=O)(=O)c2ccccc2)N=C1c1ccccc1 | 74.1 | 74.1 | –

Row | Compound | IC50 ([1]; read-out: IC50) [µM] | IC50 ([1]; read-out: pIC50 (converted)) [µM] | IC50 [2] [µM]
26 | O=S(=O)(c1ccccc1)N1N=C(c2ccc(Cl)cc2)N(S(=O)(=O)c2ccccc2)N=C1c1ccc(Cl)cc1 | 51.9 | 51.9 | –
27 | COc1ccc(C2=NN(S(=O)(=O)c3ccccc3)C(c3ccc(OC)cc3)=NN2S(=O)(=O)c2ccccc2)cc1 | 58.8 | 58.7 | –
28 | Cc1ccc(S(=O)(=O)N2N=C(c3ccccc3)N(S(=O)(=O)c3ccc(C)cc3)N=C2c2ccccc2)cc1 | 85.8 | 85.7 | –
29 | Clc1ccc(CC2=NNC(Cc3ccc(Cl)cc3)=NN2)cc1 | 51.8 | 51.8 | –
30 | CCCOC(=O)N1C(c2ccc(C(F)(F)F)cc2)=NN=C(c2ccc(C(F)(F)F)cc2)N1C(=O)OCCC | > 100 | – | > 100
31 | O=C(Oc1ccccc1)N1C(c2ccc(C(F)(F)F)cc2)=NN=C(c2ccc(C(F)(F)F)cc2)N1C(=O)Oc1ccccc1 | 14.5 | – | 26.6
32 | O=C(OCC1CCCCC1)N1C(c2ccc(C(F)(F)F)cc2)=NN=C(c2ccc(C(F)(F)F)cc2)N1C(=O)OCC1CCCCC1 | > 100 | – | > 100
33 | COC(=O)N1N=C(c2ccccc2)NN=C1c1ccccc1 | 39.5 | 39.5 | > 100
34 | CCOC(=O)N1N=C(c2ccccc2)NN=C1c1ccccc1 | > 100 | – | > 100
35 | CCCOC(=O)N1N=C(c2ccccc2)NN=C1c1ccccc1 | > 100 | – | > 100
36 | CCCCCOC(=O)N1N=C(c2ccccc2)NN=C1c1ccccc1 | 40.8 | 40.8 | 11.8
37 | CC(C)CCOC(=O)N1N=C(c2ccccc2)NN=C1c1ccccc1 | 44.2 | 44.2 | 24.6
38 | O=C(OCCCl)N1N=C(c2ccccc2)NN=C1c1ccccc1 | 101 | – | > 100
39 | CCOC(=O)N1N=C(c2ccc(C(F)(F)F)cc2)NN=C1c1ccc(C(F)(F)F)cc1 | 0.575 | 0.575 | 24.7
40 | COC(=O)N1N=C(c2ccc(Cl)cc2)NN=C1c1ccc(Cl)cc1 | 49.4 | 49.4 | 34.9
41 | O=C(OCC1CCCCC1)N1C(c2ccccc2)=NN=C(c2ccccc2)N1C(=O)OCC1CCCCC1 | > 100 | – | > 100
42 | COC(=O)N1C(c2ccc(C(F)(F)F)cc2)=NN=C(c2ccc(C(F)(F)F)cc2)N1C(=O)OC | 2.08 | – | 30.4
43 | CCOC(=O)N1C(c2ccc(C(F)(F)F)cc2)=NN=C(c2ccc(C(F)(F)F)cc2)N1C(=O)OCC | 51.1 | – | > 100
44 | CCCC1=NN(C(=O)Nc2cccc(C)c2)C(CCC)=NN1C(=O)Nc1cccc(C)c1 | 1 | 1 | –
45 | CCC1=NN(C(=O)Nc2cccc(C)c2)C(CC)=NN1C(=O)Nc1cccc(C)c1 | 0.639 | 0.64 | –
46 | CCCOC(=O)N1C(c2ccccc2)=NN=C(c2ccccc2)N1C(=O)OCCC | > 100 | – | 11.7
47 | CC(C)C(=O)N1N=C(c2ccc(C(F)(F)F)cc2)NN=C1c1ccc(C(F)(F)F)cc1 | 31.6 | 31.6 | –
48 | CC(=O)N1N=C(c2ccc(C(F)(F)F)cc2)NN=C1c1ccc(C(F)(F)F)cc1 | 9.76 | 9.75 | –
49 | FC(F)(F)c1ccc(C2=NN=C(c3ccc(C(F)(F)F)cc3)NN2)cc1 | 40 | 40 | –
